This is an account of results in patent publication US20260055088A1, “HETEROCYCLIC COMPOUND, METHOD FOR PREPARING SAME, AND PHARMACEUTICAL USE THEREOF” (Jiangsu Hengrui Pharmaceuticals Co., Ltd., priority 2022, published 2026).

Values after ≈ are worked out from the molar mass of the structure shown. Like-named read-outs stand apart in the source and are kept apart here.

Series [1] concerns the target Nav1.8 ion channel stably expressed on HEK293 cells (Homo sapiens (Human), UniProt Q9Y5Y9). Description: Inhibitory activity against Nav1.8, manual patch clamp. The settings on record: resting protocol (-80 mV to 10 mV), 1 μM TTX, read-out: IC50 for the inhibition of Nav1.8 channel activity. The format is cell-based.
The nature of series [2]: Solubility in FassIF and FessIF solutions. The series is classed as physicochemical. The settings on record: thermodynamic from solid, 37° C. The text has this: Reagents: dimethyl sulfoxide (chromatographically pure, Sigma-Aldrich, Cat. No. 472301-4X4L), ethanol (chromatographically pure, CNW, Cat. No. 4.016362.4000), acetonitrile (chromatographically pure, FISHER, Cat. No. A998-4), NaH2PO4·2H2O (analytically pure, Sinopharm Chemical Reagent Co., Ltd., Cat. No. 20040717), ammonium acetate (chromatographically pure, ALADDIN, Cat. No. 17836-250G), FaSSIF/FeSSIF/FaSSGF powder (Biorelevant, Cat. No. FFF02), FaSSIF buffer concentrate (Biorelevant, Cat. No. FASBUF), FeSSIF buffer concentrate (Biorelevant, Cat. No. FESBUF), and ultrapure water (made in-house using an ELGA CHORUS laboratory water purification system).
Instrument: Agilent 1200 DAD liquid chromatograph (Agilent, U.S.)
FaSSIF solution: 2.0825 g of FaSSIF medium solution and 48.055 g of ultrapure water were weighed into a 50-mL beaker, and 0.112 g of FaSSIF/FeSSIF/FaSSGF powder was then added to the beaker. The mixture was stirred to dissolve the powder, and the solution was then equilibrated by standing for 2 h before use (the solution should be used within 48 h). […]
3.1. […] 10 μL of the stock solution (concentration 10 mM, dissolved in DMSO) was precisely measured out and well mixed with 990 μL of an organic solvent mixture (usually DMSO:acetonitrile:ethanol=1:1:1) in a 2-mL sample flask to form a 100 μM clear sample solution. […]

With `COc1c([C@H]2[C@H](C(=O)Nc3ccnc(C(=N)N)c3)O[C@@](C)(C(F)(F)F)[C@H]2C)ccc(F)c1F` [Example 20, (2R,3S,4S,5R)—N-(2-Carbamimidoylpyridin-4-yl)-3-(3,4-difluoro-2-methoxyphenyl)-4,5-dimethyl-5-(trifluoromethyl)tetrahydrofuran-2-carboxamide], in series [1], the 50% inhibitory concentration (IC50) (in general, the concentration at which inhibition is half-maximal) was 0.24 nM. Further, the solubility (usually the concentration that dissolves in the medium under given conditions) at 24 h amounted to 308 µM (≈ 145 µg/mL) in series [2] (FassIF solution, read-out: Solubility in FassIF solution) and 2410 µM (≈ 1140 µg/mL) in series [2] (FessIF solution, read-out: Solubility in FessIF solution).
